Data reported in patent US10098889B2, “Complexes and salts of dihydropyrimidine derivatives and their application in pharmaceuticals” (SUNSHINE LAKE PHARMA CO., LTD., priority 2015, dated 2018).

How the values were obtained:
Format in all cases: physicochemical
[1] = Stability studies under high temperature, high humidity and illumination conditions (overall assessment); conditions: for Stability under high temperature, high humidity and illumination condition (in words): compared with amorphous compound (I)
Procedure: (§1) High temperature test: an appropriate amount of sample was put in a weighing bottle in the form of a thin layer of ≤5 mm, under a temperature of 60° C. for 10 days. Appearance, impurity and purity of the samples were tested respectively at the 5th and 10th day. […] If the sample has no significant change occurred at 60° C., it is not necessary to do the experiment under the condition of 40° C.
(§2) High humidity test: an appropriate amount of sample was put in a weighing bottle in the form of a thin layer of ≤5 mm, under a temperature of 25° C. for 10 days. Appearance, impurity and purity were tested respectively at the 5th and 10th day. If the moisture-absorption weight of the sample gains more than 5%, then the sample needs to be retested in the same manner under the conditions of 25° C. and RH75%±5%. If the moisture-absorption weight of the sample gains less than 5%, and other results meets the requirements, it is not necessary to do the experiment any more. (Note: the weighing bottle should be presaturated for one day by putting it into the humidistat (or a dryer containing a saturated solution of potassium nitrate) before high humidity test, then weighing the sample and weighing bottle together, and record the weight.)
(§3) Illumination test: an appropriate amount of sample was put in a weighing bottle in the form of a thin layer of ≤5 mm, under a […] for 13 days. Appearance, impurity and purity of the samples were tested respectively at the 5th and 13th day.

[2] = High humidity test (stability study); conditions: 25° C.
Procedure: as §2
(§4) Experimental results of stability study of the compound of (S)-4-(((R)-6-(2-chloro-4-fluorophenyl)-5-(methoxycarbonyl)-2-(thiazol-2-yl)-3,6-dihydropyrimidin-4-yl)methyl)morpholine-3-carboxylic acid amorphous and the complex of (S)-4-(((R)-6-(2-chloro-4-fluorophenyl)-5-(methoxycarbonyl)-2-(thiazol-2-yl)-1,6-dihydropyrimidin-4-yl)methyl)morpholine-3-carboxylic acid and L-tartaric acid and its various salt forms under high temperature, high humidity and illumination conditions are shown in Table 4.

[3] = Illumination test (stability study)
Procedure: as §3, §4

[4] = High temperature test (stability study)
Procedure: as §1, §4

[5] = Experimental study of hygroscopicity; conditions: for Weighting percentage of moisture absorption (%): constant humidity
Procedure: A dry glass weighing bottle with a plug was placed in a suitable thermostatic drier at 25° C.±1° C. (ammonium chloride and saturated solution of ammonium sulfate were placed on the bottom) on the day before the experiment, and weighed precisely. The propriate amount of the sample was plated into the weighing bottle, wherein the thickness of the sample typically is about 1 mm, and weighed precisely (m2). The weighing bottle was open and placed with the plug in the above constant temperature and humidity condition for 24 hours. The capped weighing bottle was weighed precisely (m3), and the weight gain percentage was calculated (%).
Test method: according to the Ph. Eur. <5.11>; Ch. P. 2010; II appendix XIX J; Weighting percentage of moisture absorption (%)=(m3−m2)/(m2−m1)×100%
Hygroscopicity characteristics: weighting percentage of moisture absorption
Judgement of Hygroscopicity Result:
(1) Air slaking: absorbing enough water to form liquid
(2) Of quite hygroscopicity: not less than 15%
(3) Of hygroscopicity: less than 15% but not less 2%
(4) Of slight hygroscopicity: less than 2% but not less than 0.2%

Solubility (HPLC) = assay: Solubility (HPLC)
Procedure: The solubility disclosed herein was measured by Aglient 1200 high performance liquid chromatograph VWD detector. The chromatographic column model is Waters Xbridge-C18 (4.6×150 mm, […]). The detection wavelength was 250 nm, the flow rate was 1.0 mL/minute, the column temperature was 35° C., the mobile phase was acetonitrile water (v/v=40/60).

[6] = High temperature, 60° C., 5 days
[7] = High temperature, 60° C., 10 days

SMILES	Appearance ([2]; 5 days)	Purity (%) ([2]; 5 days)	Total impurity (%) ([2]; 5 days)	Appearance ([2]; 10 days)	Purity (%) ([2]; 10 days)	Total impurity (%) ([2]; 10 days)	Appearance ([3]; 5 days)	Purity (%) ([3]; 5 days)	Total impurity (%) ([3]; 5 days)	Appearance ([3]; 13 days)	Purity (%) ([3]; 13 days)	Total impurity (%) ([3]; 13 days)	Appearance ([4]; 0 days)	Purity (%) ([4]; 0 days)	Total impurity (%) ([4]; 0 days)	Appearance [4, 6]	Purity (%) [4, 6] [%]	Total impurity (%) [4, 6] [%]	Appearance [4, 7]	Purity (%) [4, 7] [%]	other results
Br.COC(=O)C1=C(CN2CCOC[C@H]2C(=O)O)N=C(c2nccs2)N[C@H]1c1ccc(F)cc1Cl [(S)-4-(((R)-6-(2-chloro-4-fluorophenyl)-5-(methoxycarbonyl)-2-(thiazol-2-yl)-1,6-dihydropyrimidin-4-yl)methyl)morpholine-3-carboxylic Acid Hydrobromide]	yellow	99.68	0.32	yellow	99.64	0.36	yellow	97.63	2.37	yellow	96.06	3.94	yellow	99.70	0.30	yellow	99.69	0.31	yellow	99.63	Stability under high temperature, high humidity and illumination condition (in words) [1]: better stability; Total impurity (%) [4, 7]: 0.37%
COC(=O)C1=C(CN2CCOC[C@H]2C(=O)O)N=C(c2nccs2)N[C@H]1c1ccc(F)cc1Cl.Cl [(S)-4-(((R)-6-(2-chloro-4-fluorophenyl)-5-(methoxycarbonyl)-2-(thiazol-2-yl)-1,6-dihydropyrimidin-4-yl)methyl)morpholine-3-carboxylic Acid Hydrochloride]	yellow	99.65	0.35	yellow	99.59	0.41	yellow	97.59	2.41	yellow	97.47	2.53	yellow	99.63	0.37	yellow	99.63	0.37	yellow	99.43	Stability under high temperature, high humidity and illumination condition (in words) [1]: better stability; Total impurity (%) [4, 7]: 0.57%
COC(=O)C1=C(CN2CCOC[C@H]2C(=O)O)NC(c2nccs2)=N[C@H]1c1ccc(F)cc1Cl [(S)-4-(((R)-6-(2-chloro-4-fluorophenyl)-5-(methoxycarbonyl)-2-(thiazol-2-yl)-3,6-dihydropyrimidin-4-yl)methyl)morpholine-3-carboxylic Acid]	a yellow	97.51	2.49	a yellow	97.42	2.58	a yellow	93.72	6.28	a yellow	90.56	9.44	a yellow	97.54	2.46	a yellow	96.99	3.01	a yellow	95.65	Hygroscopicity (in words) [5]: certain hygroscopicity; Weighting percentage of moisture absorption (%) ([5]; 25° C.±1° C., 24 hours, listed as Compound (I) prepared by Example 1): 1.441%; Weighting percentage of moisture absorption (%) ([5]; 25° C.±1° C., 24 hours, listed as compound (I)): 1.441%; Total impurity (%) [4, 7]: 4.35%
COC(=O)C1=C(CN2CCOC[C@H]2C(=O)O)N=C(c2nccs2)N[C@H]1c1ccc(F)cc1Cl.O=C(O)C(O)C(O)C(=O)O [Complex of (S)-4-(((R)-6-(2-chloro-4-fluorophenyl)-5-(methoxycarbonyl)-2-(thiazol-2-yl)-1,6-dihydropyrimidin-4-yl)methyl)morpholine-3-carboxylic Acid and L-tartaric Acid]	yellow	99.84	0.16	yellow	99.82	0.18	yellow	99.86	0.14	yellow	99.84	0.16	yellow	99.85	0.15	yellow	99.83	0.17	yellow	99.84	Stability under high temperature, high humidity and illumination condition (in words) [1]: best stability; Change of appearance and purity under high temperature, high humidity and illumination condition ([1]; listed as L-tartaric acid complex having crystalline form I(A)): basically unchanged; Change of appearance and purity under high temperature, high humidity and illumination condition ([1]; listed as complex formed from compound (I) and L-tartaric acid): unchanged substantially; Hygroscopicity (in words) [5]: much smaller; Judgement of hygroscopicity result ([5]; 25° C.±1° C., 24 hours): of no or little hygroscopicity; Weighting percentage of moisture absorption (%) ([5]; 25° C.±1° C., 24 hours, listed as Crystalline form I(A) of the complex of compound (Ia) and L-tartaric acid): 0.029%; Weighting percentage of moisture absorption (%) ([5]; 25° C.±1° C., 24 hours, listed as crystalline form I(A) of the complex of compound (Ia) and L-tartaric acid): 0.029%; Total impurity (%) [4, 7]: 0.16%; oxide impurities ([4]; preparation purity, from Table 4): less than 0.2%; Solubility (in words) (Solubility (HPLC)): good solubility
